Tested on: IL-1β release in U937 cells after NLRP3 activation
Experiment: IL-1β release inhibition in U937 cells (MSD V-Plex)
Details: Homo sapiens, U-937, read-out: IL-1β IC50, Table 3; PMA-differentiated U937 cells, 1 μg/mL LPS 3 h, compound 30 min, 10 mM nigericin 1 h

Row | Compound | IC50 [nM]
1 | O=C(CN1CCC[C@@H](Nc2nnc(-c3ccc(C(F)(F)F)cc3O)c3ccccc23)C1)N1CCC(O)CC1 [Example 33, (R)-2-(3-((4-(2-Hydroxy-4-(trifluoromethyl)phenyl)phthalazin-1-yl)amino)piperidin-1-yl)-1-(4-hydroxypiperidin-1-yl)ethan-1-one] | < 5
2 | Oc1cc(C(F)(F)F)ccc1-c1nnc(N[C@@H]2CCCN(CCN3CC[C@H](O)C3)C2)c2c1COC2 [Example 35, (S)-1-(2-((R)-3-((4-(2-Hydroxy-4-(trifluoromethyl)phenyl)-5,7-dihydrofuro[3,4-d]pyridazin-1-yl)amino)piperidin-1-yl)ethyl)pyrrolidin-3-ol] | 5 to 50
3 | Oc1cc(C(F)(F)F)ccc1-c1nnc(N[C@@H]2CCCN(CCN3CC[C@@H](O)C3)C2)c2c1COC2 [Example 36, (R)-1-(2-((R)-3-((4-(2-Hydroxy-4-(trifluoromethyl)phenyl)-5,7-dihydrofuro[3,4-d]pyridazin-1-yl)amino)piperidin-1-yl)ethyl)pyrrolidin-3-ol] | 5 to 50
4 | Cc1cc(N[C@@H]2CCCN(CCN3CC(O)C3)C2)nnc1-c1ccc(C(F)(F)F)cc1O [Example 37, (R)-1-(2-(3-((6-(2-Hydroxy-4-(trifluoromethyl)phenyl)-5-methylpyridazin-3-yl)amino)piperidin-1-yl)ethyl)azetidin-3-ol] | 5 to 50
5 | Cc1cc(N[C@@H]2CCCN(C3CCN(C(=O)N4CC(O)C4)CC3)C2)nnc1-c1ccc(C(F)(F)F)cc1O [Example 40, (R)-(3-((6-(2-Hydroxy-4-(trifluoromethyl)phenyl)-5-methylpyridazin-3-yl)amino)-[1,4′-bipiperidin]-1′-yl) (3-hydroxyazetidin-1-yl)methanone] | < 5
6 | Cc1cc(N[C@@H]2CCCN(C3CCN(C(=O)N4CCC(O)CC4)CC3)C2)nnc1-c1ccc(C(F)(F)F)cc1O [Example 41, (R)-(3-((6-(2-Hydroxy-4-(trifluoromethyl)phenyl)-5-methylpyridazin-3-yl)amino)-[1,4′-bipiperidin]-1′-yl) (4-hydroxypiperidin-1-yl)methanone] | 5 to 50
7 | Cc1c(-c2ccc(C(F)(F)F)cc2O)nnc2c1CCCN2[C@@H]1CCCN(CC(=O)N2CCC3(CC2)CC(O)C3)C1 [Example 43, 2-[(3R)-3-{3-[2-Hydroxy-4-(trifluoromethyl)phenyl]-4-methyl-5H,6H,7H-pyrido[2,3-c]pyridazin-8-yl}piperidin-1-yl]-1-{2-hydroxy-7-azaspiro[3.5]nonan-7-yl}ethanone] | 50 to 500
8 | Cc1c(-c2ccc(C(F)(F)F)cc2O)nnc2c1CCCN2[C@@H]1CCCN(C2CCN(C3CC(O)C3)CC2)C1 (stereo partly drawn) [Example 44, 2-{8-[(3R)-1′-(3-Hydroxycyclobutyl)-[1,4′-bipiperidin]-3-yl]-4-methyl-5H,6H,7H-pyrido[2,3-c]pyridazin-3-yl}-5-(trifluoromethyl)phenol] | 50 to 500
9 | Cc1c(-c2ccc(C(F)(F)F)cc2O)nnc2c1CCCN2[C@@H]1CCCN(C2CCN([C@H]3C[C@@H](O)C3)CC2)C1 [Example 45, 2-{4-Methyl-8-[(3R)-1′-[(1s,3s)-3-hydroxycyclobutyl]-[1,4′-bipiperidin]-3-yl]-5H,6H,7H-pyrido[2,3-c]pyridazin-3-yl}-5-(trifluoromethyl)phenol] | 50 to 500
10 | Cc1cc(N[C@@H]2CCCN(CCC(=O)N3CCC(O)CC3)C2)nnc1-c1ccc(C(F)(F)F)cc1O [Example 46, 3-[(3R)-3-({6-[2-Hydroxy-4-(trifluoromethyl)phenyl]-5-methylpyridazin-3-yl}amino)piperidin-1-yl]-1-(4-hydroxypiperidin-1-yl) propan-1-one] | < 5
11 | Cc1cc(N[C@@H]2CCCN(CC(C)(C)C(=O)N3CCC(O)CC3)C2)nnc1-c1ccc(C(F)(F)F)cc1O [Example 47, 3-[(3R)-3-({6-[2-Hydroxy-4-(trifluoromethyl)phenyl]-5-methylpyridazin-3-yl}amino)piperidin-1-yl]-1-(4-hydroxypiperidin-1-yl)-2,2-dimethylpropan-1-one] | 50 to 500
12 | Cc1cc(N[C@@H]2CCCN(CC(=O)N3CC(C)(CO)C3)C2)nnc1-c1ccc(C(F)(F)F)cc1O [Example 48, (R)-2-(3-((6-(2-Hydroxy-4-(trifluoromethyl)phenyl)-5-methylpyridazin-3-yl)amino)piperidin-1-yl)-1-(3-(hydroxymethyl)-3-methylazetidin-1-yl)ethan-1-one] | 5 to 50
13 | Cc1cc(N[C@@H]2CCCN(CC(=O)N3CCC(O)CC3)C2)nnc1-c1ccc2sccc2c1O [Example 49, 2-[(3R)-3-{[6-(4-hydroxy-1-benzothiophen-5-yl)-5-methylpyridazin-3-yl]amino}piperidin-1-yl]-1-(4-hydroxypiperidin-1-yl)ethanone] | < 5
14 | Cc1c(N[C@@H]2CCCN(CC(=O)N3CCC(O)CC3)C2)nnc(-c2ccc3sccc3c2O)c1C [Example 50, (R)-2-(3-((6-(4-Hydroxybenzo[b]thiophen-5-yl)-4,5-dimethylpyridazin-3-yl)amino)piperidin-1-yl)-1-(4-hydroxypiperidin-1-yl)ethan-1-one] | < 5
15 | Cc1cc(N[C@@H]2CCCN(C[C@H]3C[C@@H](O)C3)C2)nnc1-c1ccc2sccc2c1O [Example 51, 5-(6-(((R)-1-(((1s,3S)-3-Hydroxycyclobutyl)methyl)piperidin-3-yl)amino)-4-methylpyridazin-3-yl)benzo[b]thiophen-4-ol] | < 5

The remaining lines, values ahead:

Row | IC50 [nM] | Compound
16 | < 5 | Cc1cc(N[C@@H]2CCCN(CC3CC(O)C3)C2)nnc1-c1ccc2sccc2c1O (stereo partly drawn) [Example 52, 5-(6-(((R)-1-(((1r,3R)-3-Hydroxycyclobutyl)methyl)piperidin-3-yl)amino)-4-methylpyridazin-3-yl)benzo[b]thiophen-4-ol]
17 | < 5 | Cc1cc(N[C@@H]2CCCN(CC(=O)N3CCC(C)(O)CC3)C2)nnc1-c1ccc(C(F)(F)F)cc1O [Example 55, (R)-2-(3-((6-(2-Hydroxy-4-(trifluoromethyl)phenyl)-5-methylpyridazin-3-yl)amino)piperidin-1-yl)-1-(4-hydroxy-4-methylpiperidin-1-yl)ethan-1-one]
18 | 5 to 50 | O=C(CN1CCC[C@@H](Nc2nnc(-c3ccc4sccc4c3O)c3c2COC3)C1)N1CCC(O)CC1 [Example 56, (R)-2-(3-((4-(4-Hydroxybenzo[b]thiophen-5-yl)-5,7-dihydrofuro[3,4-d]pyridazin-1-yl)amino)piperidin-1-yl)-1-(4-hydroxypiperidin-1-yl)ethan-1-one]
19 | 50 to 500 | O=C(CN1CCC[C@@H](Nc2nnc(-c3ccc(C(F)(F)F)cc3O)c3c2CNC3)C1)N1CCC(O)CC1 [Example 57, (R)-2-(3-((4-(2-Hydroxy-4-(trifluoromethyl)phenyl)-6,7-dihydro-5H-pyrrolo[3,4-d]pyridazin-1-yl)amino)piperidin-1-yl)-1-(4-hydroxypiperidin-1-yl)ethan-1-one]
20 | 5 to 50 | Cc1cc(N[C@@H]2CCCN(CC(=O)N3CCC(CO)CC3)C2)nnc1-c1ccc(C(F)(F)F)cc1O [Example 58, (R)-2-(3-((6-(2-Hydroxy-4-(trifluoromethyl)phenyl)-5-methylpyridazin-3-yl)amino)piperidin-1-yl)-1-(4-(hydroxymethyl)piperidin-1-yl)ethan-1-one]
21 | < 5 | Oc1cc(C(F)(F)F)ccc1-c1nnc(N[C@@H]2CCCN(C[C@H]3C[C@H](O)C3)C2)c2c1COC2 [Example 59, 2-(4-(((R)-1-(((1r,3R)-3-Hydroxycyclobutyl)methyl)piperidin-3-yl)amino)-5,7-dihydrofuro[3,4-d]pyridazin-1-yl)-5-(trifluoromethyl)phenol]
22 | 50 to 500 | CN1Cc2c(N[C@@H]3CCCN(CC(=O)N4CCC(O)CC4)C3)nnc(-c3ccc(C(F)(F)F)cc3O)c2C1 [Example 60, (R)-2-(3-((4-(2-Hydroxy-4-(trifluoromethyl)phenyl)-6-methyl-6,7-dihydro-5H-pyrrolo[3,4-d]pyridazin-1-yl)amino)piperidin-1-yl)-1-(4-hydroxypiperidin-1-yl)ethan-1-one]
23 | 5 to 50 | Cc1cc(N[C@@H]2CCCN(C(=O)C3CC4(CC(O)C4)C3)C2)nnc1-c1ccc(C(F)(F)F)cc1O (stereo partly drawn) [Example 61, (R)-(3-((6-(2-Hydroxy-4-(trifluoromethyl)phenyl)-5-methylpyridazin-3-yl)amino)piperidin-1-yl) (6-hydroxyspiro[3.3]heptan-2-yl)methanone]
24 | < 5 | Cc1cc(N[C@@H]2CCCN(CC3CC4(CC(O)C4)C3)C2)nnc1-c1ccc(C(F)(F)F)cc1O (stereo partly drawn) [Example 62, (R)-6-((3-((6-(2-Hydroxy-4-(trifluoromethyl)phenyl)-5-methylpyridazin-3-yl)amino)piperidin-1-yl)methyl)spiro[3.3]heptan-2-ol]
25 | 5 to 50 | Cc1cc(N[C@@H]2CCCN(C(=O)C34CC(O)(C3)C4)C2)nnc1-c1ccc(C(F)(F)F)cc1O [Example 63, (R)-(3-((6-(2-Hydroxy-4-(trifluoromethyl)phenyl)-5-methylpyridazin-3-yl)amino)piperidin-1-yl) (3-hydroxybicyclo[1.1.1]pentan-1-yl)methanone]
26 | < 5 | Cc1cc(N[C@@H]2CCCN(CC34CC(O)(C3)C4)C2)nnc1-c1ccc(C(F)(F)F)cc1O [Example 64, (R)-3-((3-((6-(2-Hydroxy-4-(trifluoromethyl)phenyl)-5-methylpyridazin-3-yl)amino)piperidin-1-yl)methyl) bicyclo[1.1.1]pentan-1-ol]
27 | < 5 | Cc1cc(N[C@@H]2CCCN(CCC3CC(O)C3)C2)nnc1-c1ccc(C(F)(F)F)cc1O (stereo partly drawn) [Example 66, (R)-2-(6-((1-(2-(3-Hydroxycyclobutyl)ethyl)piperidin-3-yl)amino)-4-methylpyridazin-3-yl)-5-(trifluoromethyl)phenol]
28 | 5 to 50 | Cc1c(N[C@@H]2CCCN(C(=O)C34CC(O)(C3)C4)C2)nnc(-c2ccc(C(F)(F)F)cc2O)c1C [Example 67, (R)-(3-((6-(2-hydroxy-4-(trifluoromethyl)phenyl)-4,5-dimethylpyridazin-3-yl)amino)piperidin-1-yl) (3-hydroxybicyclo[1.1.1]pentan-1-yl)methanone]
